Data as given in patent publication US6511975B1, “Spiropiperidine derivatives” (Sankyo Company, Limited, priority 1998, dated 2003).

Columns and labels:
Set-up in all cases: species or system guinea pig
Conditions in all cases: stated in words only
NK1 receptor = target: T1, NK1 receptor (Cavia porcellus, UniProt P30547); assay: NK1 Receptor Binding Test ([3H]-substance P, crude pulmonary membrane specimens)
T1 construct: Crude pulmonary membrane specimens were prepared from the lungs of male Hartley guinea pigs; from tissue; host or cells: guinea pig lung (crude membranes)
T1 sequence (P30547 whole entry): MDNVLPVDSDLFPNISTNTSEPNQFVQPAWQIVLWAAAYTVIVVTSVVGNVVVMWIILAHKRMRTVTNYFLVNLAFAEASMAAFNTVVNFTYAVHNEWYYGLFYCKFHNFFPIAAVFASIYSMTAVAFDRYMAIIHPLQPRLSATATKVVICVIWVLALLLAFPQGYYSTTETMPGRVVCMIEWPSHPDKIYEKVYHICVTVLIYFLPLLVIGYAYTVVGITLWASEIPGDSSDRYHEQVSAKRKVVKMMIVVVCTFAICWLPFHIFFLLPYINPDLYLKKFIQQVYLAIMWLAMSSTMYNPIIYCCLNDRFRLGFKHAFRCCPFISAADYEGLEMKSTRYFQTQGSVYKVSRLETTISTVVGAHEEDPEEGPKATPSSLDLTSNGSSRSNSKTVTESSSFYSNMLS
Experimental: NK1 Receptor Binding Test
(a) Preparation of Crude Pulmonary Membrane Specimens
Crude pulmonary membrane specimens were prepared from the lungs of male Hartley guinea pigs. Namely, the animals were sacrificed by exsanguination from the abdominal aorta under chloroform anesthesia followed promptly by excision of lung and respiratory tract tissue.
After perfusing the excised lungs in buffer (1) (50 mM Tris-HCl, pH 7.4), the lungs were sliced into thin sections and then homogenized in a buffer (2) (buffer (1) containing 120 mM sodium chloride and 5 mM potassium chloride) using a Polytron.
(§1) The tissue mass was removed from the homogenate by passing through a Nylon mesh (50 μm) and separating by centrifugation (30,000×g, 30 minutes, 4° C.).
(§2) The pellet was re-suspended in an ice-cooled Buffer (3) (Buffer (1) containing 10 mM EDTA and 300 mM potassium chloride) and after allowing to stand undisturbed for 60 minutes at 4° C., the resulting suspension was centrifuged and washed twice (30,000×g, 15 minutes, 4° C.).
(§3) The crude membrane specimens were stored at −80° C. until the time of use.
(§4) (b) Receptor Binding Test […]
The filter containing the membrane component was transferred to a mini plastic vial containing 4 ml of Picoflow and radioactivity was measured with a liquid scintillation counter (Beckman, LCS3500).

NK3 receptor = target: T2, NK3 receptor (Cavia porcellus, UniProt P30098); assay: NK3 Receptor Binding Test ([3H]-senktide, crude cerebral membrane specimens)
T2 construct: Crude membrane specimens were prepared from the brain of male Hartley guinea pigs; from tissue; host or cells: guinea pig brain (crude membranes)
T2 sequence (P30098 1-440): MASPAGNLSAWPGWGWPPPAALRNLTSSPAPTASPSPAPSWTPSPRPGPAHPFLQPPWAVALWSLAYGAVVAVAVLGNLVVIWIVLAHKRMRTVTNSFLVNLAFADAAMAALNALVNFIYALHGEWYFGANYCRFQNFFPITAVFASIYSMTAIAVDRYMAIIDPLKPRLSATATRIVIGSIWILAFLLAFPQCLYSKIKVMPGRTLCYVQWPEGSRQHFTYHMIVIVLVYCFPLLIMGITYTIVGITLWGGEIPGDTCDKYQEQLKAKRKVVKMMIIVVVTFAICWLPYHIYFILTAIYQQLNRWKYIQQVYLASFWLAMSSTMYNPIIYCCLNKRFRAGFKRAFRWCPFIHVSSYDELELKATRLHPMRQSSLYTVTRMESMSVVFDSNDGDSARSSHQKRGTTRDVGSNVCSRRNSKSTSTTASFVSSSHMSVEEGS
Experimental: NK3 Receptor Binding Test
(a) Preparation of Crude Cerebral Membrane Specimens
Crude membrane specimens were prepared from the brain of male Hartley guinea pigs. Namely, the animals were sacrificed by exsanguination from the abdominal aorta under chloroform anesthesia After perfusing with Buffer (1) (50 mM Tris-HCl, pH 7.4) from the right ventricle, the brain was enucleated immediately. The excised brain was homogenized in buffer (2) (buffer (1) containing 120 mM sodium chloride and 5 mM potassium chloride) using a Polytron. Tissue mass was removed from the homogenate by passing through a Nylon mesh (50 μm) and separating by centrifugation (30,000×g, 30 minutes, 4° C.). […]
The filter containing the membrane component was transferred to a mini plastic vial containing 4 ml of Picoflow and radioactivity was measured with a liquid scintillation counter (Aloka, LSC 3500).
In order to determine the radioactivity due to non-specific binding of [^3H]-senktide (binding to sites other than the receptor, for example, the filter), the Experiment was carried out by adding an excess amount of senktide (final concentration: 10 μM), and the radioactivity was measured.
The inhibitory ratio of senktide-receptor binding due to a test compound was calculated by the following equation. […]
A: radioactivity due to nonspecific binding
B: radioactivity in the test without the addition of a test compound […]

NK2 receptor = target: T3, NK2 receptor (Cavia porcellus, UniProt Q64077); assay: NK2 Receptor Binding Test ([3H]-SR-48968, crude ileal membrane specimens)
T3 construct: Crude membrane specimens were prepared from the ileum of male Hartley guinea pigs; from tissue; host or cells: guinea pig ileum (crude membranes)
T3 sequence (Q64077 1-402): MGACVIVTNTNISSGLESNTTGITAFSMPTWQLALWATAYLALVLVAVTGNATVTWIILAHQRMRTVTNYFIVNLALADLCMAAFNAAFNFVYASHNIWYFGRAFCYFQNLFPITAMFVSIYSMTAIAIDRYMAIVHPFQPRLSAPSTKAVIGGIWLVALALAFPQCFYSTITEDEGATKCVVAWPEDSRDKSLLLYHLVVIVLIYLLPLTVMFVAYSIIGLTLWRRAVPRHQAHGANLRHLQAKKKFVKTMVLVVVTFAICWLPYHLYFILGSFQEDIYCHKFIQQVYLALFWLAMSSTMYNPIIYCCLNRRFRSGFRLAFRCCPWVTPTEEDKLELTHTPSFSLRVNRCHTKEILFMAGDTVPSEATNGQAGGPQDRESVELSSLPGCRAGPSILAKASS
Experimental: NK2 Receptor Binding Test
(a) Preparation of Crude Ileal Membrane Specimens
Crude membrane specimens were prepared from the ileum of male Hartley guinea pigs. Namely, the animals were sacrificed by exsanguination from the abdominal aorta under chloroform anesthesia followed promptly by excision of the ileum.
The excised ileum was separated into its contents, secretions and epithelium by scraping with a slide glass. After slicing into thin sections in buffer (1) (50 mM Tris-HCl, pH 7.4), it was homogenized in buffer (2) (buffer (1) containing 120 mM sodium chloride and 5 mM potassium chloride) using a Polytron.
as §1, §2, §3, §4
The filter containing the membrane component was transferred to a mini plastic vial containing 4 ml of Picoflow and radioactivity was measured with a liquid scintillation counter (Beckman. LSC3500).

COc1cc(C(=O)N2CCO[C@](CCN3CCC4(CC3)CC(O)c3ccccc34)(c3ccc(Cl)c(Cl)c3)C2)cc(OC)c1OC (stereo partly drawn) [Example 2, 1-{2-[(2R)-(3,4-Dichlorophenyl)-4-(3,4,5-trimethoxybenzoyl)mopholin-2-yl]ethyl}spiro[(3-hydroxy)indane-1,4′-piperidine]]
superior to those of Compound A: antagonistic activity against NK1 receptor (NK1 receptor) | antagonistic activity against NK3 receptor (NK3 receptor) | antagonistic activity against NK2 receptor (NK2 receptor)

COc1cc(C(=O)N2CCO[C@](CCN3CCC4(CC3)c3ccccc3CC4O)(c3ccc(Cl)c(Cl)c3)C2)cc(OC)c1OC (stereo partly drawn) [Example 1, 1-{2-[(2R)-(3,4-Dichlorophenyl)-4-(3,4,5-trimethoxybenzoyl)morpholin-2-yl]ethyl}spiro[(2-hydroxy)indane-1,4′-piperidine]]
superior to those of Compound A: antagonistic activity against NK1 receptor (NK1 receptor) | antagonistic activity against NK3 receptor (NK3 receptor) | antagonistic activity against NK2 receptor (NK2 receptor)
